Data published in ChEMBL document CHEMBL6115030, “Systematic All-Hydrocarbon Stapling Analysis for Cecropin A Generates a Potent and Stable Antimicrobial Peptide” (J Med Chem, 2025).
In brackets after ≈: the same amount, converted by molar mass. Bridge positions count the residues as written; N and C are the ends. Square brackets hold non-standard residues; d marks the D form. Peptide text beside a SMILES is read from it. S5 = C=CCCC[C@](C)(N)C(=O)O

Assays:
Pseudomonas aeruginosa = assay: Antibacterial activity against Pseudomonas aeruginosa PAO1 assessed as inhibition of bacterial growth measured after 24 hrs by broth microdilution method; assay type: functional
Klebsiella pneumoniae = assay: Antibacterial activity against Klebsiella pneumoniae ATCC 13883 assessed as inhibition of bacterial growth measured after 24 hrs by broth microdilution method; assay type: functional
[1] = Hemolytic activity in human RBC assessed as hemolysis incubated for 1 hr by microplate reader; assay type: toxicity, cell-based, Erythrocyte; conditions: erythrocyte, 1 h
Staphylococcus aureus = assay: Antibacterial activity against Staphylococcus aureus ATCC 25923 assessed as inhibition of bacterial growth measured after 24 hrs by broth microdilution method; assay type: functional

| Compound | MIC (Pseudomonas aeruginosa) [µM] | MIC (Klebsiella pneumoniae) [µM] | Activity [1] | MIC (Staphylococcus aureus) [µM] |
| --- | --- | --- | --- | --- |
| CC[C@H](C)[C@H](NC(=O)CNC(=O)[C@H](CC(=O)O)NC(=O)[C@H](CCCNC(=N)N)NC(=O)[C@@H](NC(=O)[C@H](CC(N)=O)NC(=O)[C@H](CCC(N)=O)NC(=O)CNC(=O)[C@@H](NC(=O)[C@H](CCCCN)NC(=O)[C@H](CCC(=O)O)NC(=O)[C@@H](NC(=O)[C@H](CCCCN)NC(=O)[C@H](CCCCN)NC(=O)[C@H](Cc1ccccc1)NC(=O)[C@H](CC(C)C)NC(=O)[C@H](CCCCN)NC(=O)[C@H](Cc1c[nH]c2ccccc12)NC(=O)[C@H](CCCCN)NC(C)=O)[C@@H](C)CC)C(C)C)[C@@H](C)CC)C(=O)N[C@H](C(=O)N[C@@H](CCCCN)C(=O)N[C@@H](C)C(=O)NCC(=O)N1CCC[C@H]1C(=O)N[C@@H](C)C(=O)N[C@H](C(=O)N[C@@H](C)C(=O)N[C@H](C(=O)N[C@H](C(=O)NCC(=O)N[C@@]1(C)CCC/C=C\CCC[C@@](C)(C(=O)N[C@@H](C)C(=O)N[C@@H](CCCCN)C(N)=O)NC(=O)[C@H](CCC(N)=O)NC(=O)[C@H]([C@@H](C)O)NC(=O)[C@H](C)NC1=O)C(C)C)C(C)C)C(C)C)[C@@H](C)CC (Ac-KWKLFKKIEKVGQNIRDGIIKAGPAVAVVG[S5]ATQ[S5]AK-NH2; staple (Z) 31-35) | 12.5 (≈ 50.7 µg/mL) | 12.5 (≈ 50.7 µg/mL) | Non-toxic | 3.13 (≈ 12.7 µg/mL) |
| CC[C@H](C)[C@H](NC(=O)CNC(=O)[C@H](CC(=O)O)NC(=O)[C@H](CCCNC(=N)N)NC(=O)[C@@H](NC(=O)[C@H](CC(N)=O)NC(=O)[C@H](CCC(N)=O)NC(=O)CNC(=O)[C@@H](NC(=O)[C@H](CCCCN)NC(=O)[C@]1(C)CCC/C=C\CCC[C@](C)(NC(=O)[C@H](CC(C)C)NC(=O)[C@H](CCCCN)NC(=O)[C@H](Cc2c[nH]c3ccccc23)NC(=O)[C@H](CCCCN)NC(C)=O)C(=O)N[C@@H](CCCCN)C(=O)N[C@@H](CCCCN)C(=O)N[C@@H]([C@@H](C)CC)C(=O)N1)C(C)C)[C@@H](C)CC)C(=O)N[C@H](C(=O)N[C@@H](CCCCN)C(=O)N[C@@H](C)C(=O)NCC(=O)N1CCC[C@H]1C(=O)N[C@@H](C)C(=O)N[C@H](C(=O)N[C@@H](C)C(=O)N[C@H](C(=O)N[C@H](C(=O)NCC(=O)N[C@@H](CCC(N)=O)C(=O)N[C@@H](C)C(=O)N[C@H](C(=O)N[C@@H](CCC(N)=O)C(=O)N[C@H](C(=O)N[C@@H](C)C(=O)N[C@@H](CCCCN)C(N)=O)[C@@H](C)CC)[C@@H](C)O)C(C)C)C(C)C)C(C)C)[C@@H](C)CC (Ac-KWKL[S5]KKI[S5]KVGQNIRDGIIKAGPAVAVVGQATQIAK-NH2; staple (Z) 5-9) | > 100 | 6.25 (≈ 25.1 µg/mL) | – | 1.56 (≈ 6.27 µg/mL) |
| CC[C@H](C)[C@H](NC(=O)CNC(=O)[C@H](CC(=O)O)NC(=O)[C@H](CCCNC(=N)N)NC(=O)[C@@H](NC(=O)[C@H](CC(N)=O)NC(=O)[C@H](CCC(N)=O)NC(=O)CNC(=O)[C@@H](NC(=O)[C@H](CCCCN)NC(=O)[C@H](CCC(=O)O)NC(=O)[C@]1(C)CCC/C=C\CCC[C@](C)(NC(=O)[C@H](CCCCN)NC(=O)[C@H](Cc2c[nH]c3ccccc23)NC(=O)[C@H](CCCCN)NC(C)=O)C(=O)N[C@@H](Cc2ccccc2)C(=O)N[C@@H](CCCCN)C(=O)N[C@@H](CCCCN)C(=O)N1)C(C)C)[C@@H](C)CC)C(=O)N[C@H](C(=O)N[C@@H](CCCCN)C(=O)N[C@@H](C)C(=O)NCC(=O)N1CCC[C@H]1C(=O)N[C@@H](C)C(=O)N[C@H](C(=O)N[C@@H](C)C(=O)N[C@H](C(=O)N[C@H](C(=O)NCC(=O)N[C@@H](CCC(N)=O)C(=O)N[C@@H](C)C(=O)N[C@H](C(=O)N[C@@H](CCC(N)=O)C(=O)N[C@H](C(=O)N[C@@H](C)C(=O)N[C@@H](CCCCN)C(N)=O)[C@@H](C)CC)[C@@H](C)O)C(C)C)C(C)C)C(C)C)[C@@H](C)CC (Ac-KWK[S5]FKK[S5]EKVGQNIRDGIIKAGPAVAVVGQATQIAK-NH2; staple (Z) 4-8) | > 100 | 6.25 (≈ 25.4 µg/mL) | – | 25 (≈ 102 µg/mL) |
| CC[C@H](C)[C@H](NC(=O)CNC(=O)[C@H](CC(=O)O)NC(=O)[C@H](CCCNC(=N)N)NC(=O)[C@@H](NC(=O)[C@H](CC(N)=O)NC(=O)[C@H](CCC(N)=O)NC(=O)CNC(=O)[C@@H](NC(=O)[C@H](CCCCN)NC(=O)[C@H](CCC(=O)O)NC(=O)[C@@H](NC(=O)[C@]1(C)CCC/C=C\CCC[C@](C)(NC(=O)[C@H](Cc2c[nH]c3ccccc23)NC(=O)[C@H](CCCCN)NC(C)=O)C(=O)N[C@@H](CC(C)C)C(=O)N[C@@H](Cc2ccccc2)C(=O)N[C@@H](CCCCN)C(=O)N1)[C@@H](C)CC)C(C)C)[C@@H](C)CC)C(=O)N[C@H](C(=O)N[C@@H](CCCCN)C(=O)N[C@@H](C)C(=O)NCC(=O)N1CCC[C@H]1C(=O)N[C@@H](C)C(=O)N[C@H](C(=O)N[C@@H](C)C(=O)N[C@H](C(=O)N[C@H](C(=O)NCC(=O)N[C@@H](CCC(N)=O)C(=O)N[C@@H](C)C(=O)N[C@H](C(=O)N[C@@H](CCC(N)=O)C(=O)N[C@H](C(=O)N[C@@H](C)C(=O)N[C@@H](CCCCN)C(N)=O)[C@@H](C)CC)[C@@H](C)O)C(C)C)C(C)C)C(C)C)[C@@H](C)CC (Ac-KW[S5]LFK[S5]IEKVGQNIRDGIIKAGPAVAVVGQATQIAK-NH2; staple (Z) 3-7) | > 100 | > 100 | – | > 100 |
| CC[C@H](C)[C@H](NC(=O)CNC(=O)[C@H](CC(=O)O)NC(=O)[C@H](CCCNC(=N)N)NC(=O)[C@@H](NC(=O)[C@H](CC(N)=O)NC(=O)[C@H](CCC(N)=O)NC(=O)CNC(=O)[C@@H](NC(=O)[C@H](CCCCN)NC(=O)[C@H](CCC(=O)O)NC(=O)[C@@H](NC(=O)[C@H](CCCCN)NC(=O)[C@]1(C)CCC/C=C\CCC[C@](C)(NC(=O)[C@H](CCCCN)NC(C)=O)C(=O)N[C@@H](CCCCN)C(=O)N[C@@H](CC(C)C)C(=O)N[C@@H](Cc2ccccc2)C(=O)N1)[C@@H](C)CC)C(C)C)[C@@H](C)CC)C(=O)N[C@H](C(=O)N[C@@H](CCCCN)C(=O)N[C@@H](C)C(=O)NCC(=O)N1CCC[C@H]1C(=O)N[C@@H](C)C(=O)N[C@H](C(=O)N[C@@H](C)C(=O)N[C@H](C(=O)N[C@H](C(=O)NCC(=O)N[C@@H](CCC(N)=O)C(=O)N[C@@H](C)C(=O)N[C@H](C(=O)N[C@@H](CCC(N)=O)C(=O)N[C@H](C(=O)N[C@@H](C)C(=O)N[C@@H](CCCCN)C(N)=O)[C@@H](C)CC)[C@@H](C)O)C(C)C)C(C)C)C(C)C)[C@@H](C)CC (Ac-K[S5]KLF[S5]KIEKVGQNIRDGIIKAGPAVAVVGQATQIAK-NH2; staple (Z) 2-6) | > 100 | > 100 | – | > 100 |
| CC[C@H](C)[C@H](NC(=O)CNC(=O)[C@H](CC(=O)O)NC(=O)[C@H](CCCNC(=N)N)NC(=O)[C@@H](NC(=O)[C@H](CC(N)=O)NC(=O)[C@H](CCC(N)=O)NC(=O)CNC(=O)[C@@H](NC(=O)[C@H](CCCCN)NC(=O)[C@H](CCC(=O)O)NC(=O)[C@@H](NC(=O)[C@H](CCCCN)NC(=O)[C@H](CCCCN)NC(=O)[C@]1(C)CCC/C=C\CCC[C@](C)(NC(C)=O)C(=O)N[C@@H](Cc2c[nH]c3ccccc23)C(=O)N[C@@H](CCCCN)C(=O)N[C@@H](CC(C)C)C(=O)N1)[C@@H](C)CC)C(C)C)[C@@H](C)CC)C(=O)N[C@H](C(=O)N[C@@H](CCCCN)C(=O)N[C@@H](C)C(=O)NCC(=O)N1CCC[C@H]1C(=O)N[C@@H](C)C(=O)N[C@H](C(=O)N[C@@H](C)C(=O)N[C@H](C(=O)N[C@H](C(=O)NCC(=O)N[C@@H](CCC(N)=O)C(=O)N[C@@H](C)C(=O)N[C@H](C(=O)N[C@@H](CCC(N)=O)C(=O)N[C@H](C(=O)N[C@@H](C)C(=O)N[C@@H](CCCCN)C(N)=O)[C@@H](C)CC)[C@@H](C)O)C(C)C)C(C)C)C(C)C)[C@@H](C)CC (Ac-[S5]WKL[S5]KKIEKVGQNIRDGIIKAGPAVAVVGQATQIAK-NH2; staple (Z) 1-5) | > 100 | 12.5 (≈ 50.3 µg/mL) | – | > 100 |
